In brackets after ≈: the same amount, converted by molar mass. Numbered stars: 1 amine (or outer) side, 2 acyl side, 3 side chain; on linkers, the order of the positions; unused ones are H or OH. Square brackets hold non-standard residues; d marks the D form. Peptide text beside a SMILES is read from it. * marks the point of attachment. X1 = CC(C)(C(=O)c1ccc(C(F)(F)F)cc1)C(=O)*; βPro(3R) = O=C([C@@H]1CCN([*:1])C1)[*:2]; Phe(ol) = N[C@H](CO)Cc1ccccc1; Aib = CC(C)(N)C(=O)O
Columns and labels:
Format in all cases: functional
[1] = system: Bacillus subtilis; experiment: Antibacterial activity against Bacillus subtilis ATCC 6051 incubated for 24 hrs by broth microdilution method
[2] = system: Staphylococcus aureus; experiment: Antibacterial activity against Staphylococcus aureus ATCC 12598 incubated for 24 hrs by broth microdilution method
[3] = system: Escherichia coli; experiment: Antibacterial activity against Escherichia coli ATCC 25922 incubated for 24 hrs by broth microdilution method
[4] = system: Candida albicans; experiment: Antifungal activity against Candida albicans ATCC 2091 incubated for 24 hrs by broth microdilution method
[5] = system: Pseudomonas aeruginosa; experiment: Antibacterial activity against Pseudomonas aeruginosa ATCC 25619 incubated for 24 hrs by broth microdilution method
[6] = system: Aspergillus niger; experiment: Antibacterial activity against Aspergillus niger ATCC 9029 incubated for 24 hrs by broth microdilution method
[7] = system: Pseudomonas aeruginosa; experiment: Antibacterial activity against Pseudomonas aeruginosa assessed as inhibition zone at 1 mg/ml measured after overnight incubation by disc diffusion method; conditions: read-out: IZ
[8] = system: Staphylococcus aureus; experiment: Antibacterial activity against Staphylococcus aureus assessed as inhibition zone at 1 mg/ml measured after overnight incubation by disc diffusion method; conditions: read-out: IZ
[9] = system: Bacillus subtilis; experiment: Antibacterial activity against Bacillus subtilis assessed as inhibition zone at 1 mg/ml measured after overnight incubation by disc diffusion method; conditions: read-out: IZ
[10] = system: Escherichia coli; experiment: Antibacterial activity against Escherichia coli assessed as inhibition zone at 1 mg/ml measured after overnight incubation by disc diffusion method; conditions: read-out: IZ
[11] = system: Bacillus cereus; experiment: Antibacterial activity against Bacillus cereus
[12] = system: Staphylococcus aureus; experiment: Antibacterial activity against Staphylococcus aureus

Structure (SMILES) | MIC [1] [µg/mL] | MIC [2] [µg/mL] | MIC [3] [µg/mL] | MIC [4] [µg/mL] | MIC [5] [µg/mL] | MIC [6] [µg/mL] | MIC [11] [µg/mL] | MIC [12] [µg/mL] | zone of inhibition at 1000 µg/mL [7] [mm] | zone of inhibition at 1000 µg/mL [8] [mm] | zone of inhibition at 1000 µg/mL [9] [mm] | zone of inhibition at 1000 µg/mL [10] [mm]
N#Cc1c(N)nnn1Cc1cc(=O)oc2ccc3c(c12)OCO3 | 25 (≈ 80.3 µM) | 0.2 (≈ 0.643 µM) | 0.2 (≈ 0.643 µM) | 0.2 (≈ 0.643 µM) | 25 (≈ 80.3 µM) | 0.2 (≈ 0.643 µM) |  |  |  |  |  | 
COc1ccc(-n2cc(CNc3ccccc3-c3nnc(-c4ccccc4)o3)nn2)c([N+](=O)[O-])c1 |  |  |  |  |  |  |  |  | 2.5 | 2.5 | 2.5 | 2.5
c1ccc(-c2nnc(-c3ccccc3NCc3cn(-c4ccccc4)nn3)o2)cc1 |  |  |  |  |  |  |  |  | 2.5 | 2.5 | 2.5 | 2.5
Cc1ccc2oc(=O)cc(Cn3nnc(N)c3C#N)c2c1 | 25 (≈ 88.9 µM) | 1.6 (≈ 5.69 µM) | 0.4 (≈ 1.42 µM) | 0.2 (≈ 0.711 µM) | 25 (≈ 88.9 µM) | 0.2 (≈ 0.711 µM) |  |  |  |  |  | 
CCOC(=O)c1c(C)nnn1Cc1cc(=O)oc2ccc3c(c12)OCO3 | 25 (≈ 70 µM) | 0.2 (≈ 0.56 µM) | 0.2 (≈ 0.56 µM) | 0.2 (≈ 0.56 µM) | 25 (≈ 70 µM) | 0.2 (≈ 0.56 µM) |  |  |  |  |  | 
CC(C)C[C@H](NC(=O)CNC(=O)C(C)(C)NC(=O)[C@@H](NC(=O)C(C)(C)NC(=O)[C@H](CCC(N)=O)NC(=O)[C@H](C)NC(=O)C(C)(C)NC(=O)[C@H](C)NC(=O)C(C)(C)NC(=O)[C@@H]1CCN(C(=O)C(C)(C)C(=O)c2ccc(C(F)(F)F)cc2)C1)C(C)C)C(=O)NC(C)(C)C(=O)N1CCC[C@H]1C(=O)N[C@H](C(=O)NC(C)(C)C(=O)NC(C)(C)C(=O)N[C@@H](CCC(N)=O)C(=O)N[C@@H](CCC(N)=O)C(=O)N[C@H](CO)Cc1ccccc1)C(C)C (X1-[βPro(3R)][Aib]A[Aib]AQ[Aib]V[Aib]GL[Aib]PV[Aib][Aib]QQ[Phe(ol)]) |  |  |  |  |  |  | 12.5 (≈ 6.01 µM) | 1.56 (≈ 0.751 µM) |  |  |  | 
Cc1ccc(-n2cc(CNc3ccccc3-c3nnc(-c4ccccc4)o3)nn2)cc1 |  |  |  |  |  |  |  |  | 2.5 | 2.5 | 2.5 | 2.5
Fc1ccccc1-n1cc(CNc2ccccc2-c2nnc(-c3ccccc3)o2)nn1 |  |  |  |  |  |  |  |  | 2.5 | 2.5 | 2.5 | 2.5
Cc1ccccc1-n1cc(CNc2ccccc2-c2nnc(-c3ccccc3)o2)nn1 |  |  |  |  |  |  |  |  | 2.5 | 2.5 | 2.5 | 2.5
c1ccc(-c2nnc(-c3ccccc3NCc3cn(-c4ccccc4-c4ccc(-c5nnco5)cc4)nn3)o2)cc1 |  |  |  |  |  |  |  |  | 2.5 | 2.5 | 2.5 | 2.5
c1ccc(-c2nnc(-c3ccccc3NCc3cn(C4CCCCC4)nn3)o2)cc1 |  |  |  |  |  |  |  |  | 2.5 | 2.5 | 2.5 | 2.5

Second part, led by results:

MIC [1] [µg/mL] | MIC [2] [µg/mL] | MIC [3] [µg/mL] | MIC [4] [µg/mL] | MIC [5] [µg/mL] | MIC [6] [µg/mL] | MIC [11] [µg/mL] | MIC [12] [µg/mL] | Structure (SMILES) | zone of inhibition at 1000 µg/mL [7] [mm] | zone of inhibition at 1000 µg/mL [8] [mm] | zone of inhibition at 1000 µg/mL [9] [mm] | zone of inhibition at 1000 µg/mL [10] [mm]
25 (≈ 76.4 µM) | 0.2 (≈ 0.611 µM) | 0.2 (≈ 0.611 µM) | 0.2 (≈ 0.611 µM) | 25 (≈ 76.4 µM) | 0.2 (≈ 0.611 µM) |  |  | CCOC(=O)c1c(C)nnn1Cc1cc(=O)oc2cc(C)ccc12 |  |  |  | 
25 (≈ 83.5 µM) | 0.2 (≈ 0.668 µM) | 0.2 (≈ 0.668 µM) | 0.2 (≈ 0.668 µM) | 25 (≈ 83.5 µM) | 0.2 (≈ 0.668 µM) |  |  | Cc1ccc2c(Cn3nnc(C)c3C(=O)O)cc(=O)oc2c1 |  |  |  | 
25 (≈ 75.9 µM) | 0.2 (≈ 0.607 µM) | 0.2 (≈ 0.607 µM) | 0.2 (≈ 0.607 µM) | 25 (≈ 75.9 µM) | 0.2 (≈ 0.607 µM) |  |  | Cc1nnn(Cc2cc(=O)oc3ccc4c(c23)OCO4)c1C(=O)O |  |  |  | 
25 (≈ 72.8 µM) | 0.2 (≈ 0.583 µM) | 0.2 (≈ 0.583 µM) | 0.2 (≈ 0.583 µM) | 25 (≈ 72.8 µM) | 0.2 (≈ 0.583 µM) |  |  | CCOC(=O)c1c(C)nnn1Cc1cc(=O)oc2ccc(OC)cc12 |  |  |  | 
25 (≈ 79.3 µM) | 0.2 (≈ 0.634 µM) | 0.2 (≈ 0.634 µM) | 0.2 (≈ 0.634 µM) | 25 (≈ 79.3 µM) | 0.2 (≈ 0.634 µM) |  |  | COc1ccc2oc(=O)cc(Cn3nnc(C)c3C(=O)O)c2c1 |  |  |  | 
25 (≈ 83.5 µM) | 0.2 (≈ 0.668 µM) | 0.4 (≈ 1.34 µM) | 0.2 (≈ 0.668 µM) | 25 (≈ 83.5 µM) | 0.2 (≈ 0.668 µM) |  |  | Cc1ccc2oc(=O)cc(Cn3nnc(C)c3C(=O)O)c2c1 |  |  |  | 

Reference: ChEMBL document CHEMBL4699440, “Comprehensive review on the anti-bacterial activity of 1,2,3-triazole hybrids” (Eur J Med Chem, 2019)
